This passage reports IC50 results from patent US7517998B2, “Non nucleoside reverse transcriptase inhibitors” (priority 2004, dated 2009).

In the first experiment the target is T1, K103NNY181C mutant reverse transcriptase (Human immunodeficiency virus type 1 group M subtype B, UniProt P04585, K690N/Y768C).
T1 construct: mutations that occur in the reverse transcriptase segment of the pol gene
Put plainly: Reverse transcriptase enzymatic assay (PicoGreen), K103N/Y181C mutant RT. In kind it is biochemical, HIV-1. Particulars: IC50 mut (nM), mutant (K103N/Y181C) reverse transcriptase, enzymatic assay of Example 24. In outline:
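HIV-1 RT (2.5 nM final) pre-incubated 15 min at room temperature with inhibitor, then reacted 50 min at 37 °C with poly rC 45 nM, dG15 4.5 nM, dGTP 3.6 μM in Tris/HCl pH 7.8, 1% DMSO. Final inhibitor 10 μM to 0.508 nM; EDTA-quenched, PicoGreen fluorescence read at 485/520 nm.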
Compound `CC(C)(C)c1ccc(-n2nnnc2SCC(=O)Nc2ccc(NC(=O)CC3CCCC3)cc2Cl)c(Cl)c1` [Compound 7023] came in with an IC50 of 255 nM.

`CC(C)(C)c1ccc(-n2nnnc2SCC(=O)Nc2ccc(NC(=O)c3ccccc3O)cc2Cl)c(Cl)c1` [Compound 7014] gave a half-inhibitory concentration (IC50) of 415 nM. On the same count and under the same terms, the figure for `CC(C)(C)c1ccc(-n2nnnc2SCC(=O)Nc2ccc(NC(=O)Cc3c(Cl)cccc3Cl)cc2Cl)c(Cl)c1` [Compound 7036] is 712 nM. `CC(C)(C)c1ccc(-n2nnnc2SCC(=O)Nc2ccc(NC(=O)C(C)(C)c3ccccc3)cc2Cl)c(Cl)c1` [Compound 7041] registered a half-inhibitory concentration (IC50) of 337 nM. On the same count and under the same terms, to `CC(C)(C)c1ccc(-n2nnnc2SCC(=O)Nc2ccc(NC(=O)Cc3cccc4occc34)cc2Cl)c(Cl)c1` [Compound 7034] belongs 201 nM; to `CC(C)(C)c1ccc(-n2nnnc2SCC(=O)Nc2ccc(NC(=O)Cc3c[nH]c4ccccc34)cc2Cl)c(Cl)c1` [Compound 7043], 145 nM. For `COC(C(=O)Nc1ccc(NC(=O)CSc2nnnn2-c2ccc(C(C)(C)C)cc2Cl)c(Cl)c1)c1ccccc1` (centres unmarked) [Compound 7039], the IC50 amounted to 89.5 nM.

With `CC(C)(C)c1ccc(-n2nnnc2SCC(=O)Nc2ccc(NC(=O)c3ccc(O)cc3)cc2Cl)c(Cl)c1` [Compound 7011], the half-maximal inhibitory concentration (IC50) came out at 181 nM.

Still in this experiment, the particulars now being: IC50 mut, K103N/Y181C mutant reverse transcriptase, enzymatic assay of Example 24.
`CC(C)(N)C#Cc1ccc(NC(=O)CSc2nnnn2-c2cc(C(C)(C)C)cc(Br)c2Cl)c(Cl)c1` [Compound 4221] returned a half-inhibitory concentration (IC50) of 108 nM. `COc1ccc(Cl)c(-n2nnnc2SCC(=O)Nc2ccc(C#CC(C)(C)C(=O)O)cc2Cl)c1` [Compound 4114] came in with a concentration for half-maximal inhibition (IC50) of 200 nM.

The compound `CC(C)(C#Cc1ccc(NC(=O)CSc2nnnn2-c2ccc(C3CC3)cc2Cl)c(Cl)c1)OCCO` [Compound 4098] displayed a concentration for half-maximal inhibition (IC50) of 16.5 nM. `CC(C)(O)C#Cc1ccc(NC(=O)CSc2nnnn2-c2cc3c(cc2Cl)CCC3)c(Cl)c1` [Compound 4065] yielded an IC50 of 13.5 nM.

`CC(C)(C#Cc1ccc(NC(=O)CSc2nnnn2-c2cccc(C3CC3)c2Cl)c(Cl)c1)C(=O)O` [Compound 4179] displayed an IC50 of 467 nM. Compound `CC(C)(C#Cc1ccc(NC(=O)CSc2nnnn2-c2cc(C(C)(C)C)cc(Br)c2Cl)c(Cl)c1)NC(=O)c1cc[n+]([O-])cc1` [Compound 4223] returned an IC50 of 30 nM. `CC(C)(N)C#Cc1ccc(NC(=O)CSc2nnnn2-c2cc(C(F)(F)F)ccc2Cl)c(Cl)c1` [Compound 4137]: the IC50 came out at 88 nM. The same measure, in the same setting: the figure for `CNC(=O)COC(C)(C)C#Cc1ccc(NC(=O)CSc2nnnn2-c2ccc(C(C)(C)C)cc2Cl)c(Cl)c1` [Compound 4051] is 35 nM; for `CC(C)(C#Cc1ccc(NC(=O)CSc2nnnn2-c2ccc(C3CC3)cc2Cl)c(Cl)c1)NC(=O)CNc1ccncc1` [Compound 4188] it is 24 nM. `CN(C)c1ccc(CNC(=O)C(C)(C)C#Cc2ccc(NC(=O)CSc3nnnn3-c3ccc(C4CC4)cc3Cl)c(Cl)c2)cc1` [Compound 4153]: the IC50 was 127 nM.

In turn, `O=C(CSc1nnnn1-c1ccc(C2CC2)cc1Cl)Nc1ccc(C#CC2(CNCCN3CCCC3)CC2)cc1Cl` [Compound 4095] displayed an IC50 of 98.5 nM. `CN(C)CCCC(=O)NC(C)(C)C#Cc1ccc(NC(=O)CSc2nnnn2-c2ccc(C3CC3)cc2Cl)c(Cl)c1` [Compound 4108] displayed an IC50 of 27 nM.

`C=CC#Cc1ccc(NC(=O)CSc2nnnn2-c2ccc(C3CC3)cc2Cl)c(Cl)c1` [Compound 4133]: half-maximal inhibition (IC50) required 53.5 nM.

In the case of `CC(C)(N)C#Cc1ccc(NC(=O)CSc2nnnn2-c2cc(C(F)(F)F)cc(C3CC3)c2Cl)c(Cl)c1F` [Compound 4237], half-maximal inhibition (IC50) was put at 91.5 nM. The compound `CC(C)(C)c1ccc(-n2nnnc2SCC(=O)Nc2ccc(C#CCN3CCCCC3)cc2Cl)c(Cl)c1` [Compound 4014] displayed an IC50 of 88 nM. Regarding `CC(C)(C#Cc1ccc(NC(=O)CSc2nnnn2-c2cc(C(F)(F)F)cc(C3CC3)c2Cl)c(Cl)c1F)NC(=O)CN1CCNCC1` [Compound 4236], the IC50 was determined as 250 nM.

`CN1CCN(C(=O)COC(C)(C)C#Cc2ccc(NC(=O)CSc3nnnn3-c3ccc(C(C)(C)C)cc3Cl)c(Cl)c2)CC1` [Compound 4023]: it took 64 nM to reach half-maximal inhibition (IC50). As to `CC(C)(C#Cc1ccc(NC(=O)CSc2nnnn2-c2ccc(C3CC3)cc2Cl)c(Cl)c1F)OCCN1CCCC1` [Compound 4175], the 50% inhibitory concentration (IC50) was found to be 67 nM.

In turn, `CCS(=O)(=O)NC(=O)C(C)(C)C#Cc1ccc(NC(=O)CSc2nnnn2-c2ccc(C3CC3)cc2Cl)c(Cl)c1` [Compound 4197] came in with a half-inhibitory concentration (IC50) of 57.5 nM. The compound `CC(C)(C#Cc1ccc(NC(=O)CSc2nnnn2-c2ccc(C3CC3)cc2Cl)c(Cl)c1)C(=O)NCC1CCCO1` (centres unmarked) [Compound 4146] registered an IC50 of 37.5 nM.

As for `CC(C)(C#Cc1ccc(NC(=O)CSc2nnnn2-c2cc(C(F)(F)F)cc(C3CC3)c2Cl)c(Cl)c1)OCCN1CCNCC1` [Compound 4235], the midpoint of inhibition, the IC50, lay at 718 nM. `CC(C)(C#Cc1ccc(NC(=O)CSc2nnnn2-c2ccc(C(C)(C)C)cc2Cl)c(Cl)c1)OCC(=O)Nc1ccon1` [Compound 4054] yielded an IC50 of 35 nM.

For `CCC(C#Cc1ccc(NC(=O)CSc2nnnn2-c2ccc(C3CC3)cc2Cl)c(Cl)c1)(CC)NC(=O)OC(C)(C)C` [Compound 4066], the half-maximal inhibitory concentration (IC50) was 732 nM.

The compound `C=C(C)C#Cc1ccc(NC(=O)CSc2nnnn2-c2ccc(C3CC3)cc2Cl)c(Cl)c1` [Compound 4112] registered a concentration for half-maximal inhibition (IC50) of 54 nM. Compound `CC(C)(C#Cc1ccc(NC(=O)CSc2nnnn2-c2cc(Br)ccc2Cl)c(Cl)c1)NC(=O)c1cc[n+]([O-])cc1` [Compound 4222] came in with a half-inhibitory concentration (IC50) of 11.5 nM. Regarding `CC(C)(C#Cc1ccc(NC(=O)CSc2nnnn2-c2ccc(C3CC3)cc2Cl)c(Cl)c1)OCCN1CCS(=O)(=O)CC1` [Compound 4241], the IC50 amounted to 30.5 nM.

The experiment is the same for the next values; noted with them: IC50 mut, mutant reverse transcriptase, enzymatic assay of Example 24.
Take `CC(C)(C#Cc1ccc(NC(=O)CSc2nnc(C3CC3)n2-c2ccc(C3CC3)cc2Cl)c(Cl)c1)C(=O)O` [Compound 1019]: 525 nM corresponded to half-maximal inhibition (IC50). For `CC(C)(C)c1ccc(-n2nnnc2SCC(=O)Nc2ccc(-c3ccc(OCC(=O)O)cc3Cl)cc2Cl)c(Cl)c1` [Compound 3009], half-maximal inhibition (IC50) required 154 nM. As for `O=C(CSc1nnnn1-c1ccc(C2CC2)cc1Cl)Nc1ccc(-c2ccc(OCCN3CCCC3)cc2)cc1Cl` [Compound 2046], inhibition was half-maximal at 6.95 nM (IC50). Same read-out and setting: to `Cc1ccc(-n2nnnc2SCC(=O)Nc2ccc(-c3ccc(CCO)cc3)cc2Cl)c(Cl)c1` [Compound 2009] belongs 28 nM. As to `COC(=O)Cc1ccc(-c2ccc(NC(=O)CSc3nnnn3-c3ccc(C)cc3Cl)c(Cl)c2)cc1` [Compound 2003], the IC50 amounted to 53 nM.

In the case of `CC(C)(C)c1ccc(-n2nnnc2SCC(=O)Nc2ccc(OCC(=O)NCCN3CCOCC3)cc2Cl)c(Cl)c1` [Compound 5007], half-maximal inhibition (IC50) required 244 nM. `CN(C)c1ccc(NC(=O)COc2ccc(NC(=O)CSc3nnnn3-c3ccc(C(C)(C)C)cc3Cl)c(Cl)c2)cc1` [Compound 5012] showed an IC50 of 466 nM. For `CC(C)NS(=O)(=O)c1ccc(NC(=O)CSc2nnnn2-c2ccc(C(C)(C)C)cc2Cl)c(Cl)c1` [Compound 3023], the IC50 stood at 284 nM. `CN1CCN(C(=O)c2ccc(NC(=O)CSc3nnnn3-c3ccc(C(C)(C)C)cc3Cl)c(Cl)c2)CC1` [Compound 6004] had a 50% inhibitory concentration (IC50) of 398 nM. `COC(=O)NS(=O)(=O)c1ccc(NC(=O)CSc2nnnn2-c2ccc(C3CC3)cc2Cl)c(Cl)c1` [Compound 3040] gave an IC50 of 236 nM. For the compound `CC(C)(C)c1ccc(-n2nnnc2SCC(=O)Nc2ccc(OCC(=O)NCc3ccco3)cc2Cl)c(Cl)c1` [Compound 5002], half-maximal inhibition (IC50) was put at 137 nM. As for `CC(C)(C)c1ccc(-n2nnnc2SCC(=O)Nc2ccc(C(=O)NC(CO)C(=O)O)cc2Cl)c(Cl)c1` (centres unmarked) [Compound 6018], it took 28 nM to reach half-maximal inhibition (IC50). Still for that read-out and setting: to `O=C(CSc1nnnn1-c1ccc(C2CC2)cc1Cl)Nc1ccc(-c2ccc(OCCN3CCCC3)cc2)c(F)c1Cl` [Compound 2057] belongs 8.8 nM.

Consider `CC(C)(C)c1ccc(-n2nnnc2SCC(=O)Nc2ccc(-c3ncc[nH]3)cc2Cl)c(Cl)c1` [Compound 3029], for which the half-maximal inhibitory concentration (IC50) is 76 nM. As for `CC(C)(C)c1ccc(-n2nnnc2SCC(=O)Nc2ccc(C(=O)NCCc3ccncc3)cc2Cl)c(Cl)c1` [Compound 6023], the IC50 turned out to be 22 nM. For the compound `Cc1ccc(-c2cn[nH]c2OCC(=O)Nc2ccc(-c3ccc(CC(=O)O)cc3)cc2Cl)c(Cl)c1` [Compound 1010], 156 nM corresponded to half-maximal inhibition (IC50). Consider `CC(C)(C)c1ccc(-n2nnnc2SCC(=O)Nc2ccc(-c3ccc(OCCN4CC[C@H](O)C4)cc3)cc2Cl)c(Cl)c1` [Compound 2042], for which the IC50 was 15 nM. As to `CCN(CC)CCOc1ccc(-c2ccc(NC(=O)CSc3nnnn3-c3ccc(C(C)(C)C)cc3Cl)c(Cl)c2)cc1` [Compound 2024], it took 26 nM to reach half-maximal inhibition (IC50). For `CC(C)(C)c1ccc(-n2nnnc2SCC(=O)Nc2ccc(C(=O)Nc3ccc(N4CCOCC4)cc3)cc2Cl)c(Cl)c1` [Compound 6006], the half-maximal inhibitory concentration (IC50) worked out at 46 nM. Compound `CC(C)(C)c1ccc(-n2nnnc2SCC(=O)Nc2ccc(C(=O)Nc3ccccc3O)cc2Cl)c(Cl)c1` [Compound 6011] showed a 50% inhibitory concentration (IC50) of 26 nM. For the compound `CC(C)(C)c1ccc(-n2nnnc2SCC(=O)Nc2ccc(-c3ccc(S(C)(=O)=O)cc3)cc2Cl)c(Cl)c1` [Compound 2027], 23 nM corresponded to half-maximal inhibition (IC50). In the case of `CC(C)(C)c1ccc(-n2nnnc2SCC(=O)Nc2ccc(-c3ccc(CCC(=O)O)cc3)cc2Cl)c(Cl)c1` [Compound 2028], it took 9.3 nM to reach half-maximal inhibition (IC50).

In turn, `Cc1ccc(-n2nnnc2SCC(=O)Nc2ccc(-c3ccc(C(=O)O)cc3)cc2Cl)c(Cl)c1` [Compound 2002] came in with a 50% inhibitory concentration (IC50) of 53 nM. With `Cc1cc(NC(=O)c2ccc(NC(=O)CSc3nnnn3-c3ccc(C(C)(C)C)cc3Cl)c(Cl)c2)ccc1/C=C/C(=O)O` [Compound 6032], 20.5 nM corresponded to half-maximal inhibition (IC50). Consider `CC(C)(NC(=O)c1ccc(NC(=O)CSc2nnnn2-c2ccc(C3CC3)cc2Cl)c(Cl)c1)C(=O)O` [Compound 6033], for which inhibition was half-maximal at 298 nM (IC50).
